Tests used:
[1] = target: T1, aldosterone synthase (CYP11B2) (Homo sapiens, UniProt P19099); test: In vitro aldosterone synthase inhibition: cellular aldosterone production in Ang II-stimulated NCI-H295R cells; assay type: cell-based; details: 1 μM Ang II, 24 hr
T1 construct: host or cells: NCI-H295R
T1 sequence (P19099 25-503): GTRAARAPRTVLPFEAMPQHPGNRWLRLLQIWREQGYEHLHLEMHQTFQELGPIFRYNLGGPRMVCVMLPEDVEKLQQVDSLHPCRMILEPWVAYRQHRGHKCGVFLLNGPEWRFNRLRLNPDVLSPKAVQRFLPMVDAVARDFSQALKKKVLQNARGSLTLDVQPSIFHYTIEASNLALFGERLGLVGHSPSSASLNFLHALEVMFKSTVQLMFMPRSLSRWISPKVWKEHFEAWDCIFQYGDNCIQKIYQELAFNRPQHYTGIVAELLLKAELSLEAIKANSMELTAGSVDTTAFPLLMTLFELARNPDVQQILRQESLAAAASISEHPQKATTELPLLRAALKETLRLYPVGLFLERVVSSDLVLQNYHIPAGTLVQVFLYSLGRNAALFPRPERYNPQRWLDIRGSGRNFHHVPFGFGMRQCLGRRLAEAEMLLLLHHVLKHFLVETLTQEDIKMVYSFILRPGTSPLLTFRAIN
Description: In particular, the aldosterone synthase inhibitory activities in vitro can be determined by the following assay.
Human adrenocortical carcinoma NCI-H295R cell line is obtained from American Type Culture Collection (Manassas, Va.). Insulin/transferrin/selenium (ITS)-A supplement (100×), DMEM/F-12, antibiotic/antimycotic (100×), and fetal calf serum (FCS) are purchased from Gibco (Grand Island, N.Y.). Anti-mouse PVT scintillation proximity assay (SPA) beads and NBS 96-well plates are obtained from Amersham (Piscataway, N.J.) and Corning (Acton, Mass.), respectively. Solid black 96-well flat bottom plates are purchased from Costar (Corning, N.Y.). Aldosterone and angiotensin (Ang II) are purchased from Sigma (St. Louis, Mo.). D-[1,2,6,7-^3H(N)]aldosterone is acquired from PerkinElmer (Boston, Mass.). Nu-serum is a product of BD Biosciences (Franklin Lakes, N.J.).
For in vitro measurement of aldosterone activity, human adrenocortical carcinoma NCI-H295R cells are seeded in NBS 96-well plates at a density of 25,000 cells/well in 100 μl of a growth medium containing DMEM/F12 supplemented with 10% FCS, 2.5% Nu-serum, 1 μg ITS/ml, and 1× antibiotic/antimycotic. The medium is changed after culturing for 3 days at 37° C. under an atmosphere of 5% CO2/95% air. On the following day, cells are rinsed with 100 μl of DMEM/F12 and incubated with 100 μl of treatment medium containing 1 μM Ang II and a compound at different concentrations in quadruplicate wells at 37° C. for 24 hr. At the end of incubation, 50 μl of medium is withdrawn from each well for measurement of aldosterone production by an RIA using mouse anti-aldosterone monoclonal antibodies.
Measurement of aldosterone activity can also be performed using a 96-well plate format. Each test sample is incubated with 0.02 μCi of D-[1,2,6,7-^3H(N)]aldosterone and 0.3 μg of anti-aldosterone antibody in phosphate-buffered saline (PBS) containing 0.1% Triton X-100, 0.1% bovine serum albumin, and 12% glycerol in a total volume of 200 μl at room temperature for 1 hr. Anti-mouse PVT SPA beads (50 μl) are then added to each well and incubated overnight at room temperature prior to counting in a Microbeta plate counter. The amount of aldosterone in each sample is calculated by comparing with a standard curve generated using known quantities of the hormone.

CYP11B1 = target: T2, CYP11B1 (Homo sapiens, UniProt P15538); test: In vitro CYP11B1 inhibition in NCI-H295R cells (steroid release, radioimmunoassay); assay type: cell-based; details: I %: percentage of inhibition; for inhibition at 0.1 µM: NCI-H295R, 100 nM
T2 construct: Thus, the NCI-H295R cells have Cyp11 B1 (steroid 11 p-hydroxylase); host or cells: NCI-H295R
T2 sequence (P15538 25-503): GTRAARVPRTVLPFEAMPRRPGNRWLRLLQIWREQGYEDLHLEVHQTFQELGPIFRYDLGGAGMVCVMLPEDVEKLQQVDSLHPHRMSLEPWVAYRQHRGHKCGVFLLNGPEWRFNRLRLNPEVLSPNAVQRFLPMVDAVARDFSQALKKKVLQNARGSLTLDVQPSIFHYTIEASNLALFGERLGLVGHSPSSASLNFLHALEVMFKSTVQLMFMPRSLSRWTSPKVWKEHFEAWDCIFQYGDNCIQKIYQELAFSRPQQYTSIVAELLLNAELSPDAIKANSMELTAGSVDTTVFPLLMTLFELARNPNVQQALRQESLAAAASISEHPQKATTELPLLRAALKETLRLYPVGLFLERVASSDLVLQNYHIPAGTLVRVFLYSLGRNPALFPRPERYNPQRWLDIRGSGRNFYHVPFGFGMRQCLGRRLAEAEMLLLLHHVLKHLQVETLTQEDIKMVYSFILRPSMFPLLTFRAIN
Description: The in vitro inhibitory activities for CYP11B1 can be determined by the following assay.
The cell line NCI-H295R was originally isolated from an adrenocortical carcinoma and has been characterized in the literature through the stimulable secretion of steroid hormones and the presence of the enzymes essential for steroidogenesis. Thus, the NCI-H295R cells have Cyp11 B1 (steroid 11 p-hydroxylase). The cells show the physiological property of zonally undifferentiated human foetal adrenocortical cells which, however, have the capacity to produce the steroid hormones which are formed in the three, phenotypically distinguishable zones in the adult adrenal cortex. The NCI-H295R cells (American Type Culture Collection, ATCC, Rockville, Md., USA) are grown in Dulbeoco's Modified Eagle'Ham F-12 Medium (DME/F12), which has been I supplemented with Ulroser SF Serum(Soprachem, Cergy-Saint-Christophe, France), insulin, transferrin, selenite (1-T-S, Becton Dickinson Biosiences, Franklin lakes, NJ, USA) and antibiotics in 75 cm^2 cell culture vessels at 37° C. and in a 95% air-5% carbon dioxide atmosphere. The cells are subsequently transferred for colony formation into a 24-well incubation vessel. They are cultivated there in DME/F12 medium, which is now supplemented with 0.1% bovine serum instead of Ultroser SF for 24 hours. The experiment is initiated by cultivating the cells in DME/F12 medium which is supplemented with 0.1% bovine serum albumin and test compound, in the presence or absence of cell stimulants, for 72 hours. The test substance is added in a concentration range from 0.2 nanomolar to […]. Cell stimulants which can be used are angiotensin 11 ([…] or 100 nanomolar), potassium ions (16 millimolar), forskolin (10 micromolar) or a combination of two stimulants.
The excretion of aldosterone, cortisol, corticosterone and estradiol/estrone into the culture medium can be detected and quantified by commercially available, specific monoclonal antibodies in radioimmunoassays in accordance with the manufacturers instructions.
Inhibition of the release of certain steroids can be used as a measure of the respective enzyme inhibition by the added test compounds. The dose-dependent inhibition of enzymic activity by a compound is calculated by means of an inhibition plot which is characterized by an IC50.
The IC50 values for active test compounds are ascertained by a simple linear regression analysis in order to construct inhibition plots without data weighting. The inhibition plot is calculated by fitting a 4-parameter logistic function to the raw data points using the least squares method. The equation of the 4-parameter logistic function is calculated as follows: Y=(d−a)/((1+(x/c)b))+a I where: a=minimum data level b=gradient I c=ICED, d=maximum data level x=inhibitor concentration.

Row | Compound | IC50 [1] | CYP11B1 % I (100 nM) (CYP11B1) | inhibition at 0.1 µM (CYP11B1) | melting point
1 | 3-(3,3-dimethyl-1-oxo-isochroman-4-yl)-3H-imidazole-4-carbaldehyde oxime (trans) [Entry 5] | 47 nM | 97% |  | 
2 | Cc1noc(-c2cncn2C2c3ccccc3C(=O)OC2(C)C)n1 (racemic) [Entry 4, 3,3-dimethyl-4-[5-(3-methyl-[1,2,4]oxadiazol-5-yl)imidazol-1-yl]-isochroman-1-one] | 187 nM |  | 100% | 
3 | CCCCc1cncn1C1c2ccccc2C(=O)OC1(C)C (racemic) [Entry 6, 4-(5-butyl-imidazol-1-yl)-3,3-dimethyl-isochroman-1-one] | 6 nM |  | 100% | 
4 | CCc1cncn1C1c2ccccc2C(=O)OC12CCOCC2 (racemic) [Entry 10, [4-(5-ethyl-imidazol-1-yl)-isochroman-1-one]-3-spiro(4-tetrahydropyran)] | 314 nM |  | 90% | 
5 | COC(=O)c1cncn1C1c2ccccc2C(=O)N(C)C1(C)C (racemic) [Entry 11, 3-(2,3,3-trimethyl-1-oxo-1,2,3,4-tetrahydro-isoquinolin-4-yl)-3H-imidazole-4-carboxylic acid methyl ester] | 73 nM |  | 95% | 
6 | COC(=O)c1cncn1C1c2ccccc2C(=O)N(C2CC2)C1(C)C (racemic) [Entry 12, 3-(2-cyclopropyl-3,3-dimethyl-1-oxo-1,2,3,4-tetrahydro-isoquinolin-4-yl)-3H-imidazole-4-carboxylic acid methyl ester] | 530 nM |  | 77% | 
7 | COC(=O)c1cncn1C1c2ccccc2C(=O)OC1(C)C (single isomer, unassigned) [Entry 1, 3-(3,3-dimethyl-1-oxo-isochroman-4-yl)-3H-imidazole-4-carboxylic acid methyl ester] | 24 nM |  | 100% | 
8 | CCOC(=O)c1cncn1C1c2ccccc2C(=O)OC1(C)C (single isomer, unassigned) [Entry 2, 3-(3,3-dimethyl-1-oxo-isochroman-4-yl)-3H-imidazole-4-carboxylic acid ethyl ester] | 3 nM |  | 94% | 
9 | CC1(C)OC(=O)c2ccccc2C1n1cncc1C(=O)Oc1ccccc1 (single isomer, unassigned) [Entry 3, 3-(3,3-dimethyl-1-oxo-isochroman-4-yl)-3H-imidazole-4-carboxylic acid phenyl ester] | 3 nM |  | 97% | 
10 | C=Cc1cncn1C1c2ccccc2C(=O)OC1(C)C (single isomer, unassigned) [Entry 7, 4-(5-vinyl-imidazol-1-yl)-3,3-dimethyl-isochroman-1-one] | 22 nM |  | 100% | 
11 | CCOCc1cncn1C1c2ccccc2C(=O)OC1(C)C (single isomer, unassigned) [Entry 8, 4-(5-ethoxymethyl-imidazol-1-yl)-3,3-dimethyl-isochroman-1-one] | 17 nM |  | 100% | 
12 | CCc1cncn1C1c2ccccc2C(=O)OC12CCC2 (single isomer, unassigned) [Entry 9, [4-(5-ethyl-imidazol-1-yl)-isochroman-1-one]-3-spirocyclobutane] | 7 nM |  | 100% | 
13 | CCc1cncn1C1c2ccccc2C(=O)OC12CCC2 (stereo not shown) [Example 1(f), [4-(5-ethyl-imidazol-1-yl)-isochroman-1-one]-3-spirocyclobutane] |  |  |  | 178 to 179 °C
